# Reference: US11834393B2, “Organic compounds having taste-modifying properties” (GIVAUDAN SA, priority 2013, dated 2023)
# Key:
# [1] = Mango flavoured beverage, evaluation by a panel of experienced tasters; settings: 1 ppm dosed to mango drink (mango flavour 0.05% w/w, mango juice 0.18% w/w, sugar 8% w/w, citric acid 0.1% w/w)
# Procedure: A mango-flavoured beverage was prepared using a standard mango flavour (0.05% w/w), mango juice (0.18% w/w), sugar (8% w/w) and citric acid (0.1% w/w).
# [2] = Beef bouillon, evaluation by a panel of experienced tasters; settings: 1 ppm dosed to bouillon prepared from bouillon cubes
# Procedure: A beef bouillon was prepared using bouillon cubes obtained from a local supermarket.
smiles,measurement,setting,value
"CCCCCCCCCCCCCCCCCCNC(=O)C1(N)CC1 [Ex 5, 1-amino-N-octadecylcyclopropanecarboxamide]",taste of the mango drink compared with the reference drink (panel),[1],"more sweet, more ripe mango, more full and more long-lasting"
"CCCCCCCCCCCCCCCCCCNC(=O)C1CCCN1 (stereo not shown) [Ex 3, N-octadecylpyrrolidine-2-carboxamide]",taste of the mango drink compared with the reference drink (panel),[1],"more over-ripe, more sweet, and more full and had an increased mouthfeel"
"CCCCCCCCCCCCCCCCNC(=O)CCCN [Ex 7, N-hexadecyl 4-aminobutyramide]",taste of the beef bouillon compared with the reference (panel),[2],more salty and more umami and was more longlasting
"CCCCCCCCCCCCCCCCCCNC(=O)C(N)CCSC (stereo not shown) [Ex 1, 2-amino-4-(methylthio)-N-octadecylbutanamide]",taste of the beef bouillon compared with the reference (panel),[2],more salty and more full
